Test results from US8148391B2 (Cephalon, Inc., priority 2006, dated 2012).
Where two headings read alike, the source gives them in different places. Values belong to the molecule of their own block, whether it stands above or below them.

Key:
[1] = molecular target: T1, baculovirus-expressed ALK (Homo sapiens, UniProt Q9UM73); assay: ALK Kinase Assay (ELISA-type, time-resolved fluorescence); type: biochemical
T1 construct: host or cells: baculovirus expression system
In short: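 Plates coated with phospholipase C-γ substrate (10 μg/mL in TBS); reaction started with 30 ng/ml ALK and run 15 min at 37° C. Phosphorylated substrate detected with Eu-N1-labeled PT66 antibody. IC50 from sigmoidal variable-slope fit of percent inhibition vs log concentration.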

[2] = molecular target: T2, c-Met (cytoplasmic domain) (Homo sapiens, UniProt P08581); assay: c-Met Kinase Assay (same methods as for ALK, with modifications); type: biochemical
T2 construct: 10 ng/mL c-Met (cytoplasmic domain, Invitrogen Corporation #PV3143); purchased Invitrogen Corporation PV3143
In short: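 Plates were coated with phospholipase C-γ substrate (10 μg/mL) in TBS, and the reaction was started with 10 ng/mL c-Met cytoplasmic domain and run 15 min at 37 °C. Phosphoproduct was detected with Eu-N1-labelled PT66 antibody. IC50 came from a variable-slope sigmoidal fit of percent inhibition vs log concentration.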

[3] = ALK kinase inhibition, 1 μM ATP, read-out: ALK Activity
[4] = c-Met kinase inhibition, 1 μM ATP, read-out: cMet Activity
[5] = ALK kinase inhibition, 1 μM ATP (Km level), read-out: ALK Activity
[6] = c-Met kinase inhibition, 1 μM ATP (Km level), read-out: cMet Activity
[7] = 1 μM ATP (Km level), 30 ng/ml ALK, 37° C., 15 minutes, read-out: ALK Activity (ALK kinase inhibition, IC50 class)
[8] = 1 μM ATP (Km level), 10 ng/mL c-Met, read-out: cMet Activity (c-Met kinase inhibition, IC50 class)
[9] = 1 μM ATP (Km level), read-out: ALK Activity (ALK Kinase Inhibition, IC50)
[10] = 1 μM ATP (Km level), read-out: cMet Activity (c-Met Kinase Inhibition, IC50)

T1 sequence (Q9UM73 19-1620): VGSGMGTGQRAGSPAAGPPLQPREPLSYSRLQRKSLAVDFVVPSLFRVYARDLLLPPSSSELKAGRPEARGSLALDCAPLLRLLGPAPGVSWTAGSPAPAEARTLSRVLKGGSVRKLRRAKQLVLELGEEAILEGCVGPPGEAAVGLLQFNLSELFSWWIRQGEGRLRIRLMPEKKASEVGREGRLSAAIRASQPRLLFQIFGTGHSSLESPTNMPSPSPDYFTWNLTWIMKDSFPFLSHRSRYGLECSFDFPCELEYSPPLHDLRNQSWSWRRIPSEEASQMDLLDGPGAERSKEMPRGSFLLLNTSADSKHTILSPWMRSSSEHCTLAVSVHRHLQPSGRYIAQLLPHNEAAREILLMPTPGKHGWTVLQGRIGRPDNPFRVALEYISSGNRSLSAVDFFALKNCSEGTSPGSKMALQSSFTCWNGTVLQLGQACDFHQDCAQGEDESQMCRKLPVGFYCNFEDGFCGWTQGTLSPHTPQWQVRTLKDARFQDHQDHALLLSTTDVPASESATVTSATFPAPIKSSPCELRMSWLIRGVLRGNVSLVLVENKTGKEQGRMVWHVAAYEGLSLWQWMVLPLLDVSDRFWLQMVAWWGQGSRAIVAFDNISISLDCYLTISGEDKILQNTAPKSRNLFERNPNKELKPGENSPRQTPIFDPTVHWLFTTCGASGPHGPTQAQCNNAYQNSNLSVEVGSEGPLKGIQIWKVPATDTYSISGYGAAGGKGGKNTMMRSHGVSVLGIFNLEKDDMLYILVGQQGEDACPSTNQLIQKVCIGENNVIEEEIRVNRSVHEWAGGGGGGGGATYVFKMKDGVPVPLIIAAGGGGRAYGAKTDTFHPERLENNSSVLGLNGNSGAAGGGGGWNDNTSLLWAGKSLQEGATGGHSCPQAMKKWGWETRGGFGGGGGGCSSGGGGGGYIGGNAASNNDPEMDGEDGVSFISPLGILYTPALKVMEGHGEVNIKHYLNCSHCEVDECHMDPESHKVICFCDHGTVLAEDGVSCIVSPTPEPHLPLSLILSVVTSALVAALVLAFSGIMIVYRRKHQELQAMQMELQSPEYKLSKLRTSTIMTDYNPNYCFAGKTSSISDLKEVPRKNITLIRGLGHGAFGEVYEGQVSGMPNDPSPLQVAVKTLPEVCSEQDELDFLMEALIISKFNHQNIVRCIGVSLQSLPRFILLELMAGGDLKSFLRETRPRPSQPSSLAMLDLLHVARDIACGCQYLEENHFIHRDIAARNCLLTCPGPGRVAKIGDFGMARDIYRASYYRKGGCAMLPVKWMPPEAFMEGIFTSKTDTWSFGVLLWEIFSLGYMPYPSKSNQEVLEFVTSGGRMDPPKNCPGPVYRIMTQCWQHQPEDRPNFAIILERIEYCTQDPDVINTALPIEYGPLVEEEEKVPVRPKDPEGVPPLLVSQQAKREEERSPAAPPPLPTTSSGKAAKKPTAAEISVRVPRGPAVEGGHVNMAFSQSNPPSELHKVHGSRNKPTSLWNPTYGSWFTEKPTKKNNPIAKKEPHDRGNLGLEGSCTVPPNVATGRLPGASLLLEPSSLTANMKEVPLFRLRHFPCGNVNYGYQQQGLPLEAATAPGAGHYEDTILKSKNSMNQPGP
T2 sequence (P08581 956-1390 limits assumed): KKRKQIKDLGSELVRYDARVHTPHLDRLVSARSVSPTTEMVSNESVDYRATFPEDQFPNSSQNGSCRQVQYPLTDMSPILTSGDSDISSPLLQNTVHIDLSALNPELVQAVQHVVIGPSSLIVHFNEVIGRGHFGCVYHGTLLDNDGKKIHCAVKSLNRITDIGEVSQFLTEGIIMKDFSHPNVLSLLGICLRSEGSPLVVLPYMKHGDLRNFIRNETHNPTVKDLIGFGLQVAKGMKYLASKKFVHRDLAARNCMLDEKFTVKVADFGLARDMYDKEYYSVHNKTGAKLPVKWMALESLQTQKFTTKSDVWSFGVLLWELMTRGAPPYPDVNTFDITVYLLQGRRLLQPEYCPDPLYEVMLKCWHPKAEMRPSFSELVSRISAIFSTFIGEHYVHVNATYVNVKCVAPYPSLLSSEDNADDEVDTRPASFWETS

IC50 [1, 3]: < 100 nM | IC50 [2, 4]: < 100 nM
SMILES: CCN1C(=O)OCCc2cc(Nc3ncc(Cl)c(Nc4c(F)cccc4C(=O)NC)n3)ccc21 [Example 1746, 2-[5-chloro-2-(5-ethyl-6-oxo-5,6,8,9-tetrahydro-7-oxa-5-aza-benzocyclohepten-2-ylamino)-pyrimidin-4-ylamino]-3-fluoro-N-methyl-benzamide]

IC50 [1, 5]: < 100 nM | IC50 [2, 6]: < 100 nM
SMILES: CNC(=O)c1ccccc1Nc1nc(Nc2ccc3c(c2)N(C)CCN(CCO)C3)ncc1Cl [Example 485, 2-{5-Chloro-2-[4-(2-hydroxy-ethyl)-1-methyl-2,3,4,5-tetrahydro-1H-benzo[e][1,4]diazepin-8-ylamino]-pyrimidin-4-ylamino}-N-methyl-benzamide]

IC50 [1, 3]: < 100 nM | IC50 [2, 4]: 1000 to 10000 nM
SMILES: COc1cc2c(cc1Nc1ncc(Cl)c(Nc3ccccc3S(=O)(=O)N(C)C)n1)CCN(CC(C)(C)O)CC2 [Example 1563, 2-{5-Chloro-2-[3-(2-hydroxy-2-methyl-propyl)-8-methoxy-2,3,4,5-tetrahydro-1H-3-benzazepin-7-ylamino]-pyrimidin-4-ylamino}-N,N-dimethyl-benzenesulfonamide]

IC50 [1, 5]: < 100 nM | IC50 [2, 6]: 1000 to 10000 nM
SMILES: CCN1CCc2ccc(Nc3ncc(Cl)c(NC(C)CNS(C)(=O)=O)n3)cc2CC1 (stereo not drawn) [Example 302, N-{2-[5-Chloro-2-(3-ethyl-2,3,4,5-tetrahydro-1H-benzo[d]azepin-7-ylamino)-pyrimidin-4-ylamino]-propyl}-methanesulfonamide]

IC50 [1, 5]: 100 to 1000 nM | IC50 [2, 6]: 1000 to 10000 nM
SMILES: COCCN1CCc2ccc(Nc3ncc(Cl)c(N[C@@H]4CCCC[C@H]4N)n3)cc2CC1 [Example 451, N*4*-((1R,2R)-2-Amino-cyclohexyl)-5-chloro-N*2*-[3-(2-methoxy-ethyl)-2,3,4,5-tetrahydro-1H-benzo[d]azepin-7-yl]-pyrimidine-2,4-diamine]

IC50 [1, 7]: < 100 nM | IC50 [2, 8]: 1000 to 10000 nM
SMILES: COc1c(Nc2ncc(Cl)c(Nc3ccccc3S(=O)(=O)N(C)C)n2)ccc2c1CC(N1CCOCC1)CCC2 (racemic) [Example 1210, 2-[5-Chloro-2-(1-methoxy-8-morpholin-4-yl-6,7,8,9-tetrahydro-5H-benzocyclohepten-2-ylamino)-pyrimidin-4-ylamino]-N,N-dimethyl-benzenesulfonamide]

IC50 [1, 7]: < 100 nM | IC50 [2, 8]: > 10000 nM
SMILES: COc1cc2c(cc1Nc1ncc(Cl)c(Nc3ccc(N4CCOCC4)cc3OC)n1)CCN(C(CF)CF)CC2 [Example 1391, Chloro-N(2)-[3-(2-fluoro-1-fluoromethyl-ethyl)-8-methoxy-2,3,4,5-tetrahydro-1H-benzo[d]azepin-7-yl]-N(4)-(2-methoxy-4-morpholin-4-yl-phenyl)-pyrimidine-2,4-diamine]

IC50 [1, 9]: < 100 nM | IC50 [2, 10]: 1000 to 10000 nM
SMILES: CC(=O)OCCN1CCSc2ccc(Nc3ncc(Cl)c(N[C@@H]4CCCC[C@H]4NS(C)(=O)=O)n3)cc2C1 [Example 526, Acetic acid 2-{2-[5-chloro-4-((1R,2R)-2-methanesulfonylamino-cyclohexylamino)-pyrimidin-2-ylamino]-6,7-dihydro-9H-5-thia-8-aza-benzocyclohepten-8-yl}-ethyl ester]

IC50 [1, 9]: < 100 nM | IC50 [2, 10]: > 10000 nM
SMILES: COc1cc2c(cc1Nc1ncc(Cl)c(Nc3ccc(Cl)cc3S(=O)(=O)N(C)C)n1)CCN(CC(=O)N1CCOCC1)CC2 [Example 841, 5-Chloro-2-{5-chloro-2-[8-methoxy-3-(2-morpholin-4-yl-2-oxo-ethyl)-2,3,4,5-tetrahydro-1H-benzo[d]azepin-7-ylamino]-pyrimidin-4-ylamino}-N,N-dimethyl-benzenesulfonamide]

IC50 [1, 5]: 100 to 1000 nM | IC50 [2, 6]: 1000 to 10000 nM
SMILES: CC(C)N1CC2CC(C1)c1cc(Nc3ncc(Cl)c(N[C@@H]4CCCC[C@H]4NS(C)(=O)=O)n3)ccc12 (stereo partly drawn) [Example 165, N-{(1R,2R)-2-[5-Chloro-2-(10-isopropyl-10-aza-tricyclo[6.3.1.0*2,7*]dodeca-2,4,6-trien-4-ylamino)-pyrimidin-4-ylamino]-cyclohexyl}-methanesulfonamide]

IC50 [1, 7]: < 100 nM | IC50 [2, 8]: > 10000 nM
SMILES: COc1cc2c(cc1Nc1ncc(Cl)c(Nc3ccc[nH]c3=O)n1)CCN(CC(=O)N(C)C)CC2 [Example 1186, 2-{7-[5-Chloro-4-(2-oxo-1,2-dihydro-pyridin-3-ylamino)-pyrimidin-2-ylamino]-8-methoxy-1,2,4,5-tetrahydro-benzo[d]azepin-3-yl}-N,N-dimethyl-acetamide]

IC50 [1, 9]: 1000 to 10000 nM | IC50 [2, 10]: 1000 to 10000 nM
SMILES: Cc1ccc(-c2ccccc2Nc2nc(Nc3ccc4c(c3)CCCC(=O)N4C)ncc2Cl)nc1 [Example 1004, 7-{5-Chloro-4-[2-(5-methyl-pyridin-2-yl)-phenylamino]-pyrimidin-2-ylamino}-1-methyl-1,3,4,5-tetrahydro-benzo[b]azepin-2-one]

IC50 [1, 7]: 100 to 1000 nM | IC50 [2, 8]: 100 to 1000 nM
SMILES: CNC(=O)c1cc(N(C)C)ccc1Nc1nc(Nc2ccc3c(c2)NC(=O)CCC3)ncc1Cl [Example 1412, 2-[5-Chloro-2-(2-oxo-2,3,4,5-tetrahydro-1H-benzo[b]azepin-8-ylamino)-pyrimidin-4-ylamino]-5-dimethylamino-N-methyl-benzamide]

IC50 [1, 3]: 1000 to 10000 nM | IC50 [2, 4]: < 100 nM
SMILES: CCN1C(=O)CN(C(C)=O)Cc2ccc(Nc3ncc(Cl)c(Nc4ccsc4C(=O)NC)n3)cc21 [Example 1853, 3-[2-(4-Acetyl-1-ethyl-2-oxo-2,3,4,5-tetrahydro-1H-benzo[e][1,4]diazepin-8-ylamino)-5-chloro-pyrimidin-4-ylamino]-thiophene-2-carboxylic acid methylamide]

IC50 [1, 5]: < 100 nM | IC50 [2, 6]: < 100 nM
SMILES: CCN1CCc2ccc(Nc3ncc(C(F)(F)F)c(Nc4ccccc4C(=O)NC)n3)cc2CC1 [Example 195, 2-[2-(3-Ethyl-2,3,4,5-tetrahydro-1H-benzo[d]azepin-7-ylamino)-5-trifluoromethyl-pyrimidin-4-ylamino]-N-methyl-benzamide]

IC50 [1, 9]: < 100 nM | IC50 [2, 10]: 1000 to 10000 nM
SMILES: COCCN1CCSc2ccc(Nc3ncc(Cl)c(N[C@@H]4CCCC[C@H]4NS(C)(=O)=O)n3)cc2C1 [Example 521, N-((1R,2R)-2-{5-Chloro-2-[8-(2-methoxy-ethyl)-6,7,8,9-tetrahydro-5-thia-8-aza-benzocyclohepten-2-ylamino]pyrimidin-4-ylamino}-cyclohexyl)-methanesulfonamide]

SMILES: CNC(=O)c1ccccc1Nc1nc(Nc2ccc3c(c2)C2CCC3CN(C(C)C)C2)ncc1Cl (stereo not drawn) [Example 273, 2-[5-Chloro-2-(10-isopropyl-10-aza-tricyclo[6.3.2.0*2,7*]trideca-2,4,6-trien-4-ylamino)-pyrimidin-4-ylamino]-N-methyl-benzamide]
IC50 [1, 5]: < 100 nM | IC50 [2, 6]: < 100 nM

IC50 [1, 5]: < 100 nM | IC50 [2, 6]: < 100 nM
SMILES: CNC(=O)c1ccccc1Nc1nc(Nc2ccc3c(c2)N(C)CCNC3=O)ncc1Cl [Example 414, 2-[5-Chloro-2-(1-methyl-5-oxo-2,3,4,5-tetrahydro-1H-benzo[e][1,4]diazepin-8-ylamino)-pyrimidin-4-ylamino]-N-methylbenzamide]

IC50 [1, 9]: < 100 nM | IC50 [2, 10]: > 10000 nM
SMILES: COc1cc2c(cc1Nc1ncc(Cl)c(Nc3ccc(N4CCN(C)CC4)cc3OC)n1)CCN(CC(=O)N(C)C)CC2 [Example 770, 2-(7-{5-Chloro-4-[2-methoxy-4-(4-methyl-piperazin-1-yl)-phenylamino]-pyrimidin-2-ylamino}-8-methoxy-1,2,4,5-tetrahydro-benzo[d]azepin-3-yl)-N,N-dimethyl-acetamide]

IC50 [1, 5]: < 100 nM | IC50 [2, 6]: < 100 nM
SMILES: CNC(=O)c1ccccc1Nc1nc(Nc2ccc3c(c2)C2CCC3CN(CCF)C2)ncc1Cl (stereo not drawn) [Example 280, 2-{5-Chloro-2-[10-(2-fluoro-ethyl)-10-aza-tricyclo[6.3.2.0*2,7*]trideca-2,4,6-trien-4-ylamino]-pyrimidin-4-ylamino}-N-methyl-benzamide]

IC50 [1, 9]: < 100 nM | IC50 [2, 10]: 1000 to 10000 nM
SMILES: CNC(=O)c1ccccc1Nc1nc(Nc2cc3c(cc2OC)CCN(CC(F)F)CC3)ncc1Cl [Example 766, 2-{5-Chloro-2-[3-(2,2-difluoro-ethyl)-8-methoxy-2,3,4,5-tetrahydro-1H-benzo[d]azepin-7-ylamino]-pyrimidin-4-ylamino}-N-methyl-benzamide]

IC50 [1, 5]: < 100 nM | IC50 [2, 6]: 100 to 1000 nM
SMILES: CCN1CCc2ccc(Nc3ncc(Cl)c(N[C@@H]4CCCC[C@H]4NC(=O)C(F)(F)F)n3)cc2CC1 [Example 446, N-{(1R,2R)-2-[5-Chloro-2-(3-ethyl-2,3,4,5-tetrahydro-1H-benzo[d]azepin-7-ylamino)-pyrimidin-4-ylamino]-cyclohexyl}-2,2,2-trifluoro-acetamide]

IC50 [1, 3]: < 100 nM | IC50 [2, 4]: 1000 to 10000 nM
SMILES: COc1cc2c(cc1Nc1ncc(Cl)c(Nc3ccccc3S(=O)(=O)N(C)C)n1)CCN(CCOC(=O)[C@@H](N)C(C)C)CC2 [Example 1544, (S)-2-Amino-3-methyl-butyric acid 2-{7-[5-chloro-4-(2-dimethylsulfamoyl-phenylamino)-pyrimidin-2-ylamino]-8-methoxy-1,2,4,5-tetrahydro-3-benzazepin-3-yl}-ethyl ester]

IC50 [1, 9]: < 100 nM | IC50 [2, 10]: 100 to 1000 nM
SMILES: NC(=O)[C@@H]1[C@H](Nc2nc(Nc3ccc4c(c3)CCC(N3CCOCC3)CC4)ncc2Cl)[C@H]2C=C[C@@H]1C2 (single isomer, unassigned) [Example 681]
